The test system of data set [1] is Mycobacterium tuberculosis. Description: Inhibition of Mycobacterium tuberculosis recombinant InhA assessed as enzyme activity measured as NADH oxidation using 2-trans-decenyl CoA as substrate at 50 uM by TECAN spectrophotometer analysis. Also on record: scale not given: the % may be the effect or the level left.
Data set [2] has as its system Escherichia coli. Description: Toxicity against Escherichia coli BL21 assessed as bacterial growth inhibition at 50 uM after 8 hrs by microplate reader analysis.
Data set [3] relates to Escherichia coli. Description: Toxicity against Escherichia coli JM109 assessed as bacterial growth inhibition at 50 uM after 8 hrs by microplate reader analysis. As to conditions: in vivo. It counts as organism-based.
Data set [4] has as its system MDCK. Description: Cytotoxicity against dog MDCK cells at 50 uM after 1 day by WST-8 assay. The format is cell-based, Canis lupus familiaris. Conditions: 24 h.
For data set [5], the system named is Mycolicibacterium smegmatis. Description: Anti-mycobacterial activity against Mycobacterium smegmatis assessed as bacterial growth inhibition after 24 hrs by microplate reader analysis. The format is functional, organism-based.
Data set [6] concerns SH-SY5Y. Description: Cytotoxicity against human SH-SY5Y cells at 50 uM after 2 days by WST-8 assay. The format is cell-based. Conditions: 48 h.

With `Sc1nnc(-c2ccco2)n1/N=C/c1cccc(Oc2ccccc2)c1`, the Activity is 53.5% in data set [1], “Non-toxic” in data set [2], “Non-toxic” in data set [3] and “Non-toxic” in data set [4].
For `O=C(c1ccco1)N1CCN(Cc2cccc(Oc3ccccc3)c2)CC1`, the Activity in data set [1] is 65.1%. In data set [5], the IC50 turned out to be 12 µM.
With `NNC(=O)c1ccncc1` [ISONIAZID], in data set [5], the IC50 turned out to be 9.8 µM.
For `O=C(c1ccccc1)N1CCN(Cc2cccc(Oc3ccccc3)c2)CC1`, the Activity in data set [1] was 21.9%; in data set [2], “Non-toxic”; in data set [3], “Non-toxic”; in data set [4], “Non-toxic”. Moreover, the half-maximal inhibitory concentration (IC50) in data set [5] was 22.9 µM.
For the compound `Oc1cc(Cl)ccc1Oc1ccc(Cl)cc1Cl`, in data set [1], the Activity was 16.3%.
As to `COc1cccc(C(=O)N2CCN(Cc3cccc(Oc4ccccc4)c3)CC2)c1OC`, the Activity was 65.1% in data set [1], “Non-toxic” in data set [2], “Non-toxic” in data set [3] and “Non-toxic” in data set [4]. For the same compound, the IC50 in data set [5] was 28.1 µM.
For the compound `COc1ccc(OCC(=O)N2CCN(Cc3cccc(Oc4ccccc4)c3)CC2)cc1`, the Activity was 44.7% in data set [1]; “Non-toxic” in data set [2]; “Non-toxic” in data set [3]; “Non-toxic” in data set [4]; “Toxic” in data set [6].
As to `O=C(O)C(=O)O.O=C(c1cccnc1)N1CCN(Cc2cccc(Oc3ccccc3)c2)CC1`, the Activity in data set [1] is 34%; in data set [2], “Non-toxic”; in data set [3], “Non-toxic”; in data set [4] it was “Non-toxic”.
Turning to `O=C(O)C(=O)O.O=C(c1ccccc1F)N1CCN(Cc2cccc(Oc3ccccc3)c2)CC1`, the Activity was 21.9% in data set [1], “Non-toxic” in data set [2], “Non-toxic” in data set [3] and “Non-toxic” in data set [4]. Also, in data set [5], the IC50 came to 17.3 µM.
As for `O=C(Cc1ccccc1)N1CCN(Cc2cccc(Oc3ccccc3)c2)CC1`, the Activity in data set [1] was 65.6%; in data set [2] it was “Non-toxic”; in data set [3], “Non-toxic”; in data set [4], “Non-toxic”.
For `O=C(c1cccc(Oc2ccccc2)c1)N1CCN(C(=O)c2ccco2)CC1`, the Activity in data set [1] was 69.3%; in data set [2] it was “Non-toxic”; in data set [3] it was “Non-toxic”; in data set [4] it was “Non-toxic”.
With `COc1ccccc1C(=O)N1CCN(Cc2cccc(Oc3ccccc3)c2)CC1.O=C(O)C(=O)O`, the Activity in data set [1] was 37.7%; in data set [2], “Non-toxic”; in data set [3], “Non-toxic”; in data set [4], “Non-toxic”. In addition, the IC50 in data set [5] worked out at 25.7 µM.
For the compound `O=C(COc1ccccc1)N1CCN(Cc2cccc(Oc3ccccc3)c2)CC1`, the Activity is 69.3% in data set [1], “Non-toxic” in data set [2], “Non-toxic” in data set [3] and “Non-toxic” in data set [4]. The IC50 in data set [5] amounted to 21.4 µM.

The record behind these values is ChEMBL document CHEMBL3576853, “Discovery of InhA inhibitors with anti-mycobacterial activity through a matched molecular pair approach” (Eur J Med Chem, 2015).
